The source of these data is US6034246A, “2-arylbenzazole compounds” (Cancer Research Campaign Technology Limited, priority 1995, dated 2000).

Values after ≈ are worked out from the molar mass of the structure shown.

One may read the solubility as the concentration that dissolves in the medium under given conditions. By IC50 is commonly meant the midpoint of a concentration-inhibition curve.

One data set is described as follows: aqueous solubility. The format is physicochemical. Particulars: water.
Another data set relates to breast carcinoma BO. Kind of data set: in vivo antitumor test, human breast carcinoma BO xenotransplanted in nude mice. Particulars: for Relative tumor volume (T/C %) / evaluation: BO. As for the experimental part:
(§1) In one typical set of experiments, four human breast carcinomas xenotransplanted into female Ncr: nu/nu (Taconic, Germantown, U.S.A.) or male Bom: NMRI-nu/nu mice (Bomholtgaard, Ry, Denmark) were used for the evaluation of antitumor activity. Mice weighing 20-25 g at the start of experiments were held under sterile conditions at 24-26° C., 50% relative humidity and 12 hours light-dark rhythm in laminar flow shelves. The animals received autoclaved food and bedding; the drinking water was filtered and acidified (pH4.0).
The following breast carcinoma cell lines were used: BO; MCF-7 (NCI, U.S.A.); MT-1 and MT-3. The tumors BO and MCF-7 are ER^+ models: the carcinomas MT-1 and MT-3 are ER^- ones. Tumors were transplanted subcutaneously (s.c.) as pieces (2×2 mm) into the left flank of 5-8 nude mice/experimental group. Drug treatment was initiated when the tumors reached a diameter of 4-5 mm. Compounds were solubized with Tween 80 (maximum 10% of final volume) and suspended in saline. Suspensions were preparted freshly for each drug administration and injected in a volume of 0.2 mL/20 g body weight employing a once-weekly schedule (x3). Tumor size was measured twice weekly with a caliper. Median tumor volume/group was related to the first treatment day and expressed as Relative Tumor Volume (RTV). For the estimation of toxicity, body weight was determined twice weekly and the mean percentage body weight change (BCC) was calculated. In one experiment blood was obtained from the retroorbital venous plexus of mice and blood cells were determined with a Coulter counter (Model T41). […]

Data set [1] can be described thus: estimation of toxicity in tumor-bearing nude mice (body weight, blood cells, survival). Type of data set: in vivo, mouse. Particulars: for BWC (body weight change): BO. As for the experimental part: as §1
The following breast carcinoma cell lines were used: BO; MCF-7 (NCI, U.S.A.); MT-1 and MT-3. The tumors BO and MCF-7 are ER^+ models: the carcinomas MT-1 and MT-3 are ER^- ones. Tumors were transplanted subcutaneously (s.c.) as pieces (2×2 mm) into the left flank of 5-8 nude mice/experimental group. Drug treatment was initiated when the tumors reached a diameter of 4-5 mm. Compounds were solubized with Tween 80 (maximum 10% of final volume) and suspended in saline. Suspensions were preparted freshly for each drug administration and injected in a volume of 0.2 mL/20 g body weight employing a once-weekly schedule (x3). Tumor size was measured twice weekly with a caliper. Median tumor volume/group was related to the first treatment day and expressed as Relative Tumor Volume (RTV). For the estimation of toxicity, body weight was determined twice weekly and the mean percentage body weight change (BCC) was calculated. In one experiment blood was obtained from the retroorbital venous plexus of mice and blood cells were determined with a Coulter counter (Model T41).

The next data set deals with lung cancer cell lines. The experiment in a line: in vitro inhibition of lung cancer cell lines. The format is cell-based, human. Particulars: words, Table 1. From the text: (§2) Tables 1 to 4 at the end of the present description show in vitro test results obtained in various sets of experiments for the cytotoxic activity of several of the benzazole compounds concerned, including also for reference results for the compound CJM 126 and comparative results for compound DF129, when tested against a range of tumor cell lines which includes ovarian, lung and certain colon and renal cancer cells from the National Cancer Institute (USA) collection. As usual the results are expressed in terms of IS50 values (concentration or dosage required to reduce cell growth or proliferation by 50%) calculated from dose-effect curves plotted for cultures of the cells in question.
In carrying out the in vitro studies, the cytotoxicity assays may be carried out by a method corresponding substantially to the following example: […]
On day 7 the test was terminated by the addition of 100 μl saline containing 0.002% w/v propidium iodide (Sigma), 0.3% drawing ink (Staedtler "Marsmatic 745"--Trade Mark) and 0.5% Triton X-100. The plates were kept at 4° C. overnight before reading on an inverted microscope equipped with an automated scanning stage. Fluorescence intensity was measured in arbitrary units by a photomultiplier. […]

Another data set deals with H69/P. The experiment in a line: in vitro inhibition of growth of human lung cancer cell line H69/P (Table 1). The format is cell-based.
From the text: as §2
(§3) In carrying out the in vitro studies, the cytotoxicity assays may be carried out by a method corresponding substantially to the following example:
(§4) Cells were maintained in a continuous logarithmic culture in Dublecco's medium supplemented with 10% fetal calf serum and penicillin (100 IU/ml) and streptomycin ([…]). The cells were mildly trypsinized for passage and for use in assays. On day zero, 100 μl of trypsinized tumor cells (1×10^4 /ml) were plated in the wells of 96-well flat-bottom microtiter plates. The plates were incubated for 2 days at 37° C. and 5% CO2 in air to allow the cells to adhere and resume exponential growth prior to the addition of drugs.
(§5) On day two 50 μl of the highest drug concentration was added to the wells of column 12 and from there serially diluted 3-fold to column 1 by serial transfer of 50 μl using an 8-channel micropipette. The final volume of column 1 was adjusted to 100 μl. No additions were made to the wells of rows A and B, which served as controls. The plates were further incubated for 5 days at 37° C. and 5% CO2 in air. Each compound was tested in duplicate.
(§6) On day 7 the test was terminated by the addition of 100 μl saline containing 0.002% w/v propidium iodide (Sigma), 0.3% drawing ink (Staedtler "Marsmatic 745"--Trade Mark) and 0.5% Triton X-100. The plates were kept at 4° C. overnight before reading on an inverted microscope equipped with an automated scanning stage. Fluorescence intensity was measured in arbitrary units by a photomultiplier. An HP-87 computer controlled the movement of the stage and also collected and processed the data from the multiplier.
(§7) For each compound tested a dose-response curve was obtained and the IC50 value (the drug concentration at 50% inhibition of cell growth) was calculated.

Data set [2] deals with human breast cancer cell lines. Conditions: words, prior PCT compound; cited from earlier work.
The test system of a further data set is L23/R. Kind of data set: in vitro inhibition of growth of human lung cancer cell line L23/R (Table 1). The format is cell-based.
From the text: as §2, §3, §4, §5, §6, §7

In another data set the test system is MOR/R. The experiment in a line: in vitro inhibition of growth of human lung cancer cell line MOR/R (Table 1). The format is cell-based. Conditions: MOR/R (multidrug resistant line).
From the text: as §2, §3, §4, §5, §6, §7

Another data set relates to LX4. The experiment in a line: in vitro inhibition of growth of human lung cancer cell line LX4 (Table 1). Type of data set: cell-based.
From the text: as §2, §3, §4, §5, §6, §7

A further data set relates to L23/P. Kind of data set: in vitro inhibition of growth of human lung cancer cell line L23/P (Table 1). The format is cell-based.
From the text: as §2, §3, §4, §5, §6, §7

A further data set has as its system MOR/P. Kind of data set: in vitro inhibition of growth of human lung cancer cell line MOR/P (Table 1). Conditions: MOR/P (parental line). Type of data set: cell-based.
From the text: as §2, §3, §4, §5, §6, §7

The next data set deals with CH1. Kind of data set: in vitro activity against human ovarian cell line CH1 (Table 2). Type of data set: cell-based.
From the text: (§8) As usual the results are expressed in terms of IS50 values (concentration or dosage required to reduce cell growth or proliferation by 50%) calculated from dose-effect curves plotted for cultures of the cells in question.
as §3, §4, §5
(§9) The plates were kept at 4° C. overnight before reading on an inverted microscope equipped with an automated scanning stage. Fluorescence intensity was measured in arbitrary units by a photomultiplier. An HP-87 computer controlled the movement of the stage and also collected and processed the data from the multiplier.

Another data set has as its system A2780. Kind of data set: in vitro activity against human ovarian cell line A2780 (Table 2). Conditions: A2780 (parental line). Type of data set: cell-based.
From the text: as §8, §3, §4, §5, §9

A further data set relates to ER-tumors MT-1 and MT-3. Conditions: words, background statement; cited from earlier work.
The subject of another data set is CH1-cisR. Kind of data set: in vitro activity against human ovarian cell line CH1-cisR (Table 2). The format is cell-based.
From the text: as §8, §3, §4, §5, §9

Another data set has as its system A2780-cisR. Kind of data set: in vitro activity against human ovarian cell line A2780-cisR (Table 2). Particulars: A2780-cisR (platinum-resistant). Type of data set: cell-based.
From the text: as §8, §3, §4, §5, §9

Setting [3] is: qd 27, 34, 41, 20 mg/Kg/inj. i.p.
[4] abbreviates: qd 27, 34, 41, 200 mg/Kg/inj. i.p. (Table 5).
Setting [5] is: qd 27, 34, 41, 1 mg/Kg/inj. i.p.
Setting [6] is: qd 27, 34, 41, 10 mg/Kg/inj. i.p.
The mark [7] stands for this setting: qd 27, 34, 41, 100 mg/Kg/inj. i.p.

`O=S(=O)([O-])Nc1ccc(-c2nc3ccccc3s2)cc1.[Na+]` yielded a solubility in “aqueous solubility” of roughly 10000 µg/mL.
As for `Nc1cccc(-c2nc3ccccc3s2)c1` [2-(3-Aminophenyl)-benzothiazole], the “Relative tumor volume (T/C %)” value in the data set with breast carcinoma BO (qd 27, 34, 41, 2 mg/Kg/inj. i.p., not marked significant) was found to be 78%; in the data set on breast carcinoma BO (qd 27, 34, 41, 20 mg/Kg/inj. i.p., * significant versus controls (p < 0.05)) it was 48%; in the data set with breast carcinoma BO (qd 27, 34, 41, 200 mg/Kg/inj. i.p. (Table 5), * significant versus controls (p < 0.05)), 32%. Also, the evaluation entry is “+ (T/C % = 36-50%)” with breast carcinoma BO (setting [3]) and “++ (T/C = 21-35%)” in the data set on breast carcinoma BO (setting [4]). For the same compound, in the data set on breast carcinoma BO (words), the “inhibitory effects against the breast carcinoma BO” value is on record as “elicited inhibitory effects”. Besides, the “BWC (body weight change)” value was 2% in data set [1] (qd 27, 34, 41, 2 mg/Kg/inj. i.p.); -3% in data set [1] (setting [3]); -6% in data set [1] (setting [4]).
Consider `Nc1ccc(-c2nc3ccccc3s2)cc1` [CJM126, 2-(4'-Aminophenyl)benzothiazole], for which the “activity against lung cancer cell lines” value with lung cancer cell lines is on record as “not very sensitive”. For the same compound, the IC50 in the data set on H69/P, with L23/R, in the data set with MOR/R, in the data set with LX4, in the data set with L23/P and in the data set on MOR/P was greater than 10 µM in each case. Further, the “specific inhibitory activity in respect of certain human breast cancer cell lines” value in [2] is listed as “remarkably high specific inhibitory activity”. For the same compound, the solubility in the data set “aqueous solubility” worked out at 3.8 µg/mL (≈ 16.8 µM). Besides, the values for the evaluation result with breast carcinoma BO (setting [5]), in the data set on breast carcinoma BO (setting [6]) and with breast carcinoma BO (setting [7]) were “+ (T/C % = 36-50%)”, “(+) (T/C % ≥ 51%)” and “(+) (T/C % ≥ 51%)”, respectively. For the same compound, the “Relative tumor volume (T/C %)” value in the data set on breast carcinoma BO (qd 27, 34, 41, 1 mg/Kg/inj. i.p., * significant versus controls (p < 0.05)) is on record as 41%; in the data set with breast carcinoma BO (qd 27, 34, 41, 10 mg/Kg/inj. i.p., * significant versus controls (p < 0.05)) it was 52%; in the data set with breast carcinoma BO (qd 27, 34, 41, 100 mg/Kg/inj. i.p., * significant versus controls (p < 0.05)), 52%. Further, the “influence on tumor growth, dose dependence” value in the data set with breast carcinoma BO (words) was “relatively independent of dose”. Moreover, in the data set on breast carcinoma BO (words), the “inhibitory effects against the breast carcinoma BO” value is given as “elicited inhibitory effects”. The “BWC (body weight change)” value in data set [1] (setting [5]) was -5%; in [1] (setting [6]), -4%; in [1] (setting [7]) it was -7%. For the same compound, in [1] (words), the “influence on body weight, dose dependence” value is recorded as “relatively independent of dose”.
In the case of `N.N.[Cl][Pt][Cl]` [Cisplatin], the IC50 in the data set with CH1 is 100 nM; with A2780, 330 nM; in the data set on CH1-cisR, 700 nM; with A2780-cisR, 5.2 µM. Also, the “responsiveness of MT-1 and MT-3 tumors to drug” value in the data set on ER-tumors MT-1 and MT-3 was “only modestly sensitive”.
